Source: patent US10702506B2, “Small molecule inhibitors of pendrin ion exchange and pharmaceutical compositions” (THE REGENTS OF THE UNIVERSITY OF CALIFORNIA, priority 2016, dated 2020)
Read-outs that look alike come from different tables or passages of the source.

Target: T1, pendrin (Homo sapiens, UniProt O43511)
T1 sequence (O43511 1-780): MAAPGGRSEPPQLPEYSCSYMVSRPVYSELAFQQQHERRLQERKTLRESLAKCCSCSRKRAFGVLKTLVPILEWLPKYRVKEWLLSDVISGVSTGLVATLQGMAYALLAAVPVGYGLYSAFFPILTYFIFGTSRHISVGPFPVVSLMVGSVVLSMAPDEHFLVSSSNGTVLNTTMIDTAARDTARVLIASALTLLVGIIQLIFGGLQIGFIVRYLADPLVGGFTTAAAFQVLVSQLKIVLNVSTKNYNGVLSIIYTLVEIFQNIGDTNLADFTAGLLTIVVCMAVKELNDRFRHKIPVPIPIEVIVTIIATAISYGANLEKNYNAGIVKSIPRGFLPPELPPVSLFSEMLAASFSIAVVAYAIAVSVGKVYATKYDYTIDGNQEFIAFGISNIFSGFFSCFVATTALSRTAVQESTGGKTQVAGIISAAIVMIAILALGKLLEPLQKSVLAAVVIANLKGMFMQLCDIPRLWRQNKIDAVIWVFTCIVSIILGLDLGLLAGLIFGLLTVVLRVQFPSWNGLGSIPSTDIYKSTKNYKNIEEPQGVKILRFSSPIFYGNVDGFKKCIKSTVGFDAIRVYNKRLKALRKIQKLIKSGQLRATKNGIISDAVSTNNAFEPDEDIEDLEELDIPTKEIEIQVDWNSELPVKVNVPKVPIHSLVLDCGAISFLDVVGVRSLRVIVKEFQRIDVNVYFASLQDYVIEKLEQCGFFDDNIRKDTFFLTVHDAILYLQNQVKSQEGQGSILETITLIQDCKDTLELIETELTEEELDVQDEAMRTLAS
Assay: YFP (EYFP-HIF) fluorescence quenching assay of pendrin-mediated Cl− exchange (SCN−, I−, NO3−) in FRT cells; high-throughput screen
Assay type: cell-based
Set-up: expressed in transfected cells
Settings: for inhibition at 25 µM: FRT, read-out: Inh. (%), percentage inhibition of human pendrin
Method: Fischer rat thyroid (FRT) cells were cultured in Kaign's modified Ham's F12 medium supplemented with 10% FBS, 2 mM L-glutamine, 100 U/ml penicillin, […], […] myo-inositol and […] ascorbic acid. For high-throughput screening, FRT cells were stably transfected with EYFP-H148Q/I152L/F46L (EYFP-HIF; in pcDNA3.1/Hygro (+)), isolated using 0.25 mg/ml hygromycin B, and then transfected with pcDNA3.1 (+) encoding human pendrin with clonal cell lines selected using 0.5 mg/ml G418.
High-throughput screening was performed using a semi-automated screening platform (Beckman, Fullerton, Calif.) configured as described. FRT cells expressing human pendrin and EYFP-HIF were plated in 96-well black-walled, clear-bottom tissue culture plates (Corning, Corning, N.Y.) at a density of 20,000 cells/well, and cultured to confluence over 48 h. For screening, plates were washed twice with PBS (in mM: 137 NaCl, 2.7 KCl, 1.1 KH2PO4, 8.1 Na2HPO4, 0.9 CaCl2), 0.5 MgCl2) prior to addition of 100 μl PBS containing test compounds. Screening was done with ˜36,000 compounds from ChemDiv (San Diego, Calif.), TimTec (Newark, Del.), and Asinex (Winston-Salem, N.C.). After 10 min incubation with test compound, plates were transferred to a Tecan Infinite M1000 plate reader (Tecan, Morrisville, N.C.) for fluorescence assay of pendrin activity. The assay duration was 10 s with initial fluorescence intensity recorded for 2 s prior to addition of 100 μl of NaSCN-substituted PBS (137 mM NaCl replaced with NaSCN). All assay plates contained negative controls (DMSO). In some experiments Cl^− exchange for I^− or NO3^− was measured similarly using NaI and NaNO3-substituted PBS. Control experiments to measure basal ion transport rates were done in FRT cells expressing EYFP-HIF without pendrin.
FRT cells were chosen for screening due to their low intrinsic permeability to anions that are transported by pendrin. As depicted in FIGS. 1A and 2A, pendrin activity was assayed from the kinetics of the halide-sensitive fluorescent protein EYFP-HIF in response to addition of a SCN^−-containing solution to drive pendrin-mediated Cl^−/SCN^−. Pendrin inhibition reduces the rate of EYFP-HIF quenching. PDSinh-A01 land PDSinh-C01 decreased pendrin-mediated Cl^−/SCN^− and Cl^−/I^− exchange in a concentration-dependent manner, as measured by YFP fluorescence quenching. […] Because the only previously-described pendrin inhibitor is the weakly active compound niflumic acid, no positive control was included in the screening plates.

Cc1n[nH]c(-c2cc(S(=O)(=O)NC3CCCc4ccccc43)c(C)s2)c1C (stereo not shown) [PDSinh-C01]
inhibition at 25 µM: 83%

Cn1nc(COc2cccc(F)c2)c2c1CCN(C(=O)Nc1ccc(Cl)cc1)C2 [PDSinh-A01]
IC50 (Cl−/I− exchange, read-out: IC50 for Cl−/I− exchange): ~8 µM | IC50 (Cl−/NO3− exchange, read-out: IC50 for Cl−/NO3− exchange): ~5 µM | time at which ~IC50 (half inhibition) was displayed, inhibition kinetics (Cl−/SCN− exchange, 10 μM added for indicated times): 5 min | IC50 (Cl−/SCN− exchange, read-out: IC50 for Cl−/SCN− exchange): ~9 µM | inhibition at 25 µM: ~100% | reversibility of inhibition by washout (washout): reversible
